In publication PMC6423129, “Activity and structural analysis of GRL-117C: a novel small molecule CCR5 inhibitor active against R5-tropic HIV-1s” (Scientific Reports, 2019):

Tests used:
[1] = system: HIV-1YU2; assay: TZM-bl single-round infection assay, HIV-1YU2; format: cell-based; conditions: Human immunodeficiency virus 1, YU2, drug-sensitive, mean ± SD
Method: (§1) MAGI-CCR5 cells[18] were maintained in DMEM supplemented with 10% fetal calf serum (FCS: Gemini Bio-Products, West Sacramento, CA), 200 μg/ml G418, 100 μg/ml hygromycin B, and 100 μg/ml zeomycin. The Chinese hamster ovary (CHO) cells expressing CCR5[19] were maintained in Ham’s F-12 medium (GIBCO-BRL, Rockville, MD) supplemented with 10% FCS, 50 U/ml penicillin, and 50 μg/ml streptomycin in the presence of 5 μg/ml blasticidin S hydrochloride. TZM-bl cells were obtained from the NIH AIDS Reagent Program, and were cultured in DMEM with 10% FCS. Peripheral blood mononuclear cells (PBMCs) were isolated from buffy coats of HIV-1 seronegative individuals, and were activated with 10 μg/ml phytohemagglutinin (PHA) prior to use[16]. A laboratory wild-type R5-HIV-1 strain (HIV-1Ba-L)[37] was employed for drug susceptibility assays. AD101 (experimental CCR5 inhibitor) and VVC-resistant HIV clones[7],[8] were provided by Dr. John P. Moore of Cornell University for this study. The clones were propagated with activated PBMCs, and were used for the assays. A clinical HIV-1 strain, HIV-1KP-5pc, and an MVC-resistant isolate, HIV-1KP-5mvcR, were prepared and used for antiviral assays, as previously described[10],[38]. The following reagents (plasmids) for T/F HIV-1 viruses[22],[24] were obtained through the NIH AIDS Reagent Program, Division of AIDS, NIAID, NIH: pCH040.c/2625 (cat# 11740), pCH106.c/2633 (cat# 11743), pTHRO.c/2626 (cat# 11745), and pCH058.c/2960 (cat# 11856), from Dr. John Kappes and Dr. Christina Ochsenbauer.
(§2) Antiviral assays using PHA-PBMCs (p24 assay) were conducted as previously reported[16],[38]. In brief, PHA-PBMCs (1 × 10^6/ml) were exposed to 50 TCID50 of HIV-1Ba-L or drug-resistant HIV-1 infectious clones in the presence or absence of various concentrations of drugs; 10-fold serial dilutions were performed in 96-well microculture plates. The amount of p24 antigens produced by the cells was determined on day 7 in the culture via a commercially available ELISA kit (PerkinElmer). The p24 production level in drug-free control cell cultures was used as the reference. […] Antiviral assays using MAGI-CCR5 cells (MAGI assay) were conducted as previously reported[16],[39]. Single-round virus infection assays using TZM-bl cells infected with R5-HIV-1s (HIV-1YU2, HIV-1KP-5pc, and HIV-1KP-5mvcR)[10] were also conducted as previously described.

[2] = molecular target: T1, CCR5 (Homo sapiens, UniProt P51681); assay: Inhibition of 125I-MIP-1α binding to CCR5 (CCR5+ CHO cells)
T1 construct: expressed in transfected cells; host or cells: Chinese hamster ovary (CHO) cells expressing CCR5
Method: In order to determine whether GRL derivatives block the binding of CC-chemokines to CCR5, we conducted a CC-chemokine binding inhibition assay using ^125I-labeled CC-chemokines (^125I-RANTES, ^125I-MIP-1α, and ^125I-MIP-1β) and CCR5 expressing cells.
CCR5^+ CHO cells were incubated with (A) ^125I-MIP-1α, (B) ^125I-MIP-1β, and (C) ^125I-RANTES (200 ng/ml) in the presence or absence of varying concentrations of CCR5 inhibitors. Data are shown as means ± s.d. of three independent experiments.
The inhibition of the binding of ^125I-labeled CC-chemokines ([^125I] RANTES, [^125I] MIP-1α, or [^125I] MIP-1β) to CCR5 by various CCR5 inhibitors was measured as previously described. Calcium flux inhibition assays were also performed with CCR5 inhibitors, and were carried out with the Fluo-4 Direct^TM calcium reagent (Invitrogen); assays were conducted as previously described with minor modifications. In brief, CHO-CCR5 cells (5 × 10^5 cells) were exposed to Fluo-4 Direct^TM calcium reagent for 60 min at 37 °C in RPMI containing 5% FCS. Cells were then incubated with the test compound for 30 min at varying concentrations. Subsequently, cells were exposed to either MIP-1α, MIP-1β, or RANTES at 200 ng/ml. Relative increases in cytosolic Ca^2+ levels after chemokine exposure were determined with flow cytometry (FACSCalibur, BD Biosciences), and IC50 values of cytosolic Ca^2+ mobilization (Ca^2+ flux) were compared with the Ca^2+ flux level in drug-free control samples.

[3] = system: pCH040.c/2625; assay: MAGI assay, T/F HIV-1 clone pCH040.c/2625; format: cell-based; conditions: Human immunodeficiency virus 1, MAGI
Excerpt: We also examined the activity of GRL-compounds against Transmitter/founder (T/F) HIV-1 viruses. T/F viruses are involved in the initial infection. It is considered that T/F viruses virtually always use CCR5 rather than CXCR4 and infect T cells but not macrophages because […] of CD4 is needed to mediate virus entry for the initial transmission[20]–[24]. […] We obtained four HIV-1 T/F infectious clones. We determined the antiviral activity of GRL-117C, GRL-10007C and GRL-10018C on these HIV-1 clones using MAGI assay.
as §1, with “A clinical HIV-1 strain, HIV-1KP-5pc, and an MVC-resistant isolate, HIV-1KP-5mvcR, were prepared and used for antiviral assays, as previously described[10],[38].” left out
as §2

T1 sequence (P51681 whole entry): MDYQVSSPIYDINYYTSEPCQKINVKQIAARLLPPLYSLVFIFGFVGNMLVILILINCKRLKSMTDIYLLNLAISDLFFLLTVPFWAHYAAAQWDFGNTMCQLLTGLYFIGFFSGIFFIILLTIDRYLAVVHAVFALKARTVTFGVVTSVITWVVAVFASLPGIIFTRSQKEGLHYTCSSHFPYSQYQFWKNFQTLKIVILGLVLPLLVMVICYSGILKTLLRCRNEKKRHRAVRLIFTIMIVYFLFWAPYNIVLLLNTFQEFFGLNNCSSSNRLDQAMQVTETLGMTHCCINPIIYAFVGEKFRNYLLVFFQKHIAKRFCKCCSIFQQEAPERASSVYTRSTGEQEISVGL

C=CCN(C(=O)OCc1ccc([N+](=O)[O-])cc1)C1CC2CCC(C1)N2CCC(C)(CN(C)S(=O)(=O)c1ccccc1)c1ccccc1 (stereo not shown) [GRL-117C]
IC50 [1]: 68 ± 8.8 nM
IC90 [1]: > 100 nM
EC50 [2]: 4.3 nM
IC50 [3]: 2 ± 0.6 nM
